Results as given in the supplement of paper PMC10307832.

Tests used:
Assay in all cases: relative viability (nuclei count vs DMSO), 5 days (fraction); higher = more cells survive
Bleomycin + Decitabine = compound: CC1=C(N=C(N=C1N)[C@H](CC(=O)N)NC[C@@H](C(=O)N)N)C(=O)N[C@@H]([C@H](C2=CN=CN2)OC3C(C(C(C(O3)CO)O)O)OC4C(C(C(C(O4)CO)O)OC(=O)N)O)C(=O)N[C@H](C)[C@H]([C@H](C)C(=O)N[C@@H]([C@@H](C)O)C(=O)NCCC5=NC(=CS5)C6=NC(=CS6)C(=O)NCCC[S+](C)C)O [Bleomycin] + Nc1ncn([C@H]2C[C@H](O)[C@@H](CO)O2)c(=O)n1 [Decitabine] (partner 2 µM); conditions: main component drawn
In short: (§1)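 Lung cancer cell lines in 1536-well plates got either a single drug or a fixed anchor-drug dose together with five library-drug doses (not always all listed) in √10 steps, by pin tool, on the day after seeding. Nuclei were counted after 5 days, and relative viability is the treated-to-vehicle ratio of nuclei counts. Values are medians of duplicate plates.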

Etoposide + AZD7762 = compound: COc1cc([C@@H]2c3cc4c(cc3[C@@H](O[C@@H]3O[C@@H]5CO[C@@H](C)O[C@H]5[C@H](O)[C@H]3O)[C@H]3COC(=O)[C@H]23)OCO4)cc(OC)c1O [Etoposide] + NC(=O)Nc1cc(-c2cccc(F)c2)sc1C(=O)N[C@H]1CCCNC1 [AZD7762] (partner 0.2 µM)
In short: as §1

Etoposide + Trametinib = compound: COc1cc([C@@H]2c3cc4c(cc3[C@@H](O[C@@H]3O[C@@H]5CO[C@@H](C)O[C@H]5[C@H](O)[C@H]3O)[C@H]3COC(=O)[C@H]23)OCO4)cc(OC)c1O [Etoposide] + CC(=O)Nc1cccc(-n2c(=O)n(C3CC3)c(=O)c3c(Nc4ccc(I)cc4F)n(C)c(=O)c(C)c32)c1 [Trametinib] (partner 0.02 µM)
In short: as §1

Bleomycin + Pictilisib = compound: CC1=C(N=C(N=C1N)[C@H](CC(=O)N)NC[C@@H](C(=O)N)N)C(=O)N[C@@H]([C@H](C2=CN=CN2)OC3C(C(C(C(O3)CO)O)O)OC4C(C(C(C(O4)CO)O)OC(=O)N)O)C(=O)N[C@H](C)[C@H]([C@H](C)C(=O)N[C@@H]([C@@H](C)O)C(=O)NCCC5=NC(=CS5)C6=NC(=CS6)C(=O)NCCC[S+](C)C)O [Bleomycin] + CS(=O)(=O)N1CCN(Cc2cc3nc(-c4cccc5[nH]ncc45)nc(N4CCOCC4)c3s2)CC1 [Pictilisib] (partner 1 µM); conditions: main component drawn
In short: as §1

Cell Line	relative viability (Bleomycin + Decitabine; first compound 0.01 µM)	relative viability (Bleomycin + Decitabine; first compound 0.03162 µM)	relative viability (Bleomycin + Decitabine; first compound 0.1 µM)	relative viability (Bleomycin + Decitabine; first compound 0.3162 µM)	relative viability (Bleomycin + Decitabine; first compound 1 µM)	relative viability (Etoposide + AZD7762; first compound 0.01 µM)	relative viability (Etoposide + AZD7762; first compound 0.03162 µM)	relative viability (Etoposide + AZD7762; first compound 0.1 µM)	relative viability (Etoposide + AZD7762; first compound 0.3162 µM)	relative viability (Etoposide + AZD7762; first compound 1 µM)	relative viability (Etoposide + Trametinib; first compound 0.01 µM)	relative viability (Etoposide + Trametinib; first compound 0.03162 µM)	relative viability (Etoposide + Trametinib; first compound 0.1 µM)	relative viability (Etoposide + Trametinib; first compound 0.3162 µM)	relative viability (Etoposide + Trametinib; first compound 1 µM)	relative viability (Bleomycin + Pictilisib; first compound 0.01 µM)	relative viability (Bleomycin + Pictilisib; first compound 0.03162 µM)	relative viability (Bleomycin + Pictilisib; first compound 0.1 µM)	relative viability (Bleomycin + Pictilisib; first compound 0.3162 µM)	relative viability (Bleomycin + Pictilisib; first compound 1 µM)
HCC-44	0.773	0.795	0.693	0.396	0.407	1.02	1.05	1.15	1.01	0.95	1.01	1.21	1.09	0.97	0.739	0.385	0.477	0.271	0.211	0.246
HCC-78	0.624	0.702	0.639	0.645	0.423	0.808	0.771	0.392	0.658	0.409	0.585	0.759	0.648	0.403	0.299	0.201	0.213	0.204	0.199	0.159
HCC-366	0.242	0.26	0.132	0.069	0.0541	0.227	0.251	0.187	0.091	0.0373	0.338	0.36	0.249	0.0581	0.0512	0.133	0.128	0.09	0.0658	0.0477
HCC-827	0.304		0.287	0.249	0.198	0.206	0.223	0.185	0.167	0.177	0.497	0.525	0.315	0.23	0.187	0.921	0.787	0.916	0.512	0.399
IA-LM																0.331	0.29	0.356	0.211	0.215
NCI-H520	0.501	0.54	0.456	0.424	0.416						0.597	0.645	0.414	0.617	0.49	0.298	0.301	0.287	0.256	0.238
NCI-H522	0.736	0.777	0.608	0.405	0.399	0.891	0.97	0.69	0.761	0.824	0.756	0.875	0.744	0.703	0.649					
NCI-H661	0.552	0.572	0.434	0.37	0.315						0.567	0.639	0.398	0.51	0.388	0.523	0.387	0.263	0.25	0.245
NCI-H1299																0.65	0.571	0.367	0.149	0.154
NCI-H1563																0.608	0.698	0.623	0.574	0.533
NCI-H1648	0.412	0.387	0.466	0.467	0.334		0.762	0.991	0.722	0.451		0.552	0.362	0.523	0.416					
NCI-H1650	0.295	0.253	0.163	0.184	0.146						0.459	0.541	0.458	0.257	0.143	0.408	0.318	0.255	0.139	0.125
NCI-H1703						0.149	0.126		0.121	0.114						0.226	0.236	0.26	0.219	0.176
NCI-H2009	0.39	0.392	0.353	0.293	0.271						0.239	0.286	0.168	0.246	0.216	0.768	0.672	0.749	0.324	0.405
NCI-H2023	0.195	0.195	0.152	0.113	0.0909						0.448	0.647	0.559	0.452	0.186	0.225	0.193	0.158	0.124	0.0805
NCI-H2228											0.485	0.576	0.32	0.279	0.168	0.553	0.356	0.386	0.361	0.328
NCI-H2342	0.692	0.624	0.619	0.547	0.556	0.573	0.441	0.337	0.433	0.4	0.777	0.881	0.505	0.355	0.344					
SK-LU-1	0.598	0.631	0.655	0.554	0.492						0.446	0.411	0.394	0.258	0.236	0.434	0.638	0.474	0.352	0.282
SK-MES-1	0.321	0.356	0.305	0.177	0.164						0.5	0.518	0.594	0.46	0.277	0.432	0.274	0.307	0.201	0.116
SW 900	0.377	0.406	0.334	0.234	0.244	0.561	0.7	0.379	0.539	0.293	0.741	0.653	0.649	0.354	0.25					
SW 1573	0.368	0.442	0.311	0.19	0.197						0.609	0.548	0.436	0.219	0.14	0.43	0.361	0.459	0.254	0.174
